Columns and labels:
control HSCs [1] = test: Transplant of TNFα-treated cultured HSCs into recipient mice; type: in vivo, mouse
Description: (§1) FIGS. 6A-6I: Dnmt3a-mutant HSCs maintain self-renewal and generate B lymphoid cells following TNF stimulation. (FIG. 6A) Schematic of experimental design to test response of Mx-Cre control and Dnmt3a^R878H/+ HSCs to recombinant TNFα ex vivo under growth conditions that favor HSC expansion. (FIG. 6B) Normalized frequency of donor-derived cells in PB of recipient mice post-transplant. Significance calculated using mixed-effects model with Fisher's LSD. (FIG. 6C) Representative flow cytometry plots showing B cell and myeloid cell frequencies in donor derived PB at 4 weeks post-transplant. (FIG. 6D) Frequency of myeloid (left) and B cells (right) in donor derived PB at 4 weeks post-transplant. Significance calculated using two-way ANOVA with Sidak's multiple comparison's test. (FIG. 6E) Schematic of experimental design to test TNFα response of Fgd5-Cre^ERT control vs. Fgd5-Cre^ERT Dnmt3a^R878H/+ HSCs, and germline Dnmt3a^+/+ vs. Dnmt3a^+/− HSCs. (FIGS. 6F-6G) Viable cell counts after 7 days of culture. Significance calculated using Brown-Forsythe and Welch ANOVA with Welch's correction. (FIG. 6H) Frequency of donor-derived cells in PB of recipient mice post-transplant. Significance calculated using mixed-effects model with Fisher's LSD. (FIG. 6I) Frequency of myeloid (left) and B cells (right) in donor derived PB at 4 weeks post-transplant. Significance calculated using one-way ANOVA with Fisher's LSD. (FIGS. 6B, 6D, and 6F-6I) Dots represent individual recipient mice, boxes show 25 to 75th percentile, line is median, whiskers show min to max. *P<0.05, **P<0.01, ***P<0.001.
(§2) To assess the extent to which TNFα directly promotes young Dnmt3a-mutant HSC survival, we added recombinant TNFα to mixed cultures of wild-type and Dnmt3a-mutant HSCs in media that sustains HSC self-renewal (FIG. 6A). […] Post culture, cells were transplanted into recipient mice to assess HSC function. […] Thus, TNFα-driven myeloid regeneration at the expense of HSC self-renewal is disrupted in Dnmt3a^R878H/+ HSCs. Instead, TNFα-treated Dnmt3a^R878H/+ HSCs favor lymphoid regeneration and maintain their self-renewal. To assess this in complementary models, we used tamoxifen-inducible Fgd5-Cre-driven Dnmt3a^R878H/+ mice as well as germline Dnmt3a^+/− mice to isolate HSCs for TNFα stimulation (FIG. 6E). […] Thus, TNFα-induced HSC survival and disrupted myeloid regeneration are broadly relevant to Dnmt3a-mutant clonal hematopoiesis.
(§3) Two months post-poly(I:C), 25 CD45.2^+ from Dnmt3a^+/+ Mx-Cre or Dnmt3a^fl-R878H/+ Mx-Cre donors (CD45.2+) and 25 CD45.1^+/CD45.2^+ HSCs were sorted into a 96-well plate with Ham's F12 media containing final concentrations of 1× Penicillin-streptomycin-glutamine (Gibco cat. #10378-016), 10 mM HEPES (Gibco cat. #15630080), 1× Insulin-transferrin-selenium-ethanolamine (Gibco cat. #51500-056), 100 ng/mL recombinant murine TPO (Biolegend cat. #593302), 10 ng/mL recombinant murine SCF (StemCell Technologies cat. #78064), and 1 mg/mL polyvinyl alcohol (Sigma cat. #P8136)^19+/−10 ng/mL recombinant murine TNF-α (PeproTech cat. #315-01A) and cultured for seven days at 37° C. and 5% CO2. TNF-α was spiked into the cultures on day 4 and 6. On day 7, half of the wells were stained and analyzed by flow cytometry and half of the wells were harvested, mixed with 1×10^6 CD45.1^+ post-ficoll whole BM cells, and transplanted into young, lethally irradiated CD45.1^+ recipients. PB was tracked monthly for six months post-transplant via flow cytometry.

Dnmt3a-mutant HSCs [2] = test: as above; type: in vivo, mouse
Description: as §1, §2, §3

control HSCs [3] = test: PVA HSC culture with recombinant TNFα, cell number; type: cell-based, mouse
Description: as §1
(§4) To assess the extent to which TNFα directly promotes young Dnmt3a-mutant HSC survival, we added recombinant TNFα to mixed cultures of wild-type and Dnmt3a-mutant HSCs in media that sustains HSC self-renewal (FIG. 6A). […]
as §3, with “TNF-α was spiked into the cultures on day 4 and 6.” left out, “PB was tracked monthly for six months post-transplant via flow cytometry.” left out

Dnmt3a-mutant HSCs [4] = test: PVA HSC culture with recombinant TNFα, cell number; type: cell-based, mouse; conditions: recombinant TNFα added to mixed cultures of wild-type and Dnmt3a^R878H HSCs
Description: as §1, §4
as §3, with “TNF-α was spiked into the cultures on day 4 and 6.” left out, “PB was tracked monthly for six months post-transplant via flow cytometry.” left out

[5] = donor-derived cells in PB post-transplant, FIG. 6B
[6] = post-transplant, data not shown

In the case of TNFα, the “Long-term multilineage engraftment of TNFα-treated control HSCs” value (control HSCs [1]; [5]) is reported as “did not sustain long-term multilineage engraftment”, the “HSC, MPP^Mk/E and MPP^G/M populations in bone marrow from TNFα-treated control HSCs” value (control HSCs [1]; [6]) is reported as “trends toward reduced HSC, MPP^Mk/E, and MPP^G/M populations” and the “Dnmt3a^+/− B lymphoid relative to myeloid cell production” value (Dnmt3a-mutant HSCs [2]; donor-derived PB at 4 weeks post-transplant, FIG. 6I) is reported as “transiently increased Dnmt3a^+/− B lymphoid relative to myeloid cell production”. For the same substance, the “Dnmt3a^R878H/+ B lymphoid cell production” value (Dnmt3a-mutant HSCs [2]; donor-derived PB at 4 weeks post-transplant, FIGS. 6C-6D) was “transiently increased Dnmt3a^R878H/+ B lymphoid cell production”, the “Mature hematopoietic cell production and engraftment of TNFα-treated Dnmt3a^R878H/+ HSCs” value (Dnmt3a-mutant HSCs [2]; [5]) was “increased production of mature hematopoietic cells in the short term (4 weeks post-transplant) followed by sustained multilineage engraftment” and the “HSC, MPP^Mk/E and MPP^G/M populations in bone marrow from TNFα-treated Dnmt3a^R878H/+ HSCs” value (Dnmt3a-mutant HSCs [2]; [6]) was “not observed in TNFα-treated Dnmt3a^R878H/+ HSCs”. For the same substance, the “Multilineage engraftment of TNFα-treated Dnmt3a^+/− HSCs” value (Dnmt3a-mutant HSCs [2]; vs TNFα-treated control HSCs, FIG. 6H) was “sustained multilineage engraftment at a higher frequency than TNFα-treated control HSCs”, the “Number of control cells produced over the culture period” value (control HSCs [3]; Mx-Cre control, 10 ng/mL TNF-α, seven days, data not shown) was “reduced the number of control” and the “Viable cell counts of control cells after 7 days of culture” value (control HSCs [3]; controls of the Fgd5-Cre and germline Dnmt3a^+/− models, FIGS. 6F-6G) was “reduced the number of control”. The “Wild-type progeny in mixed cultures” value (control HSCs [3]; recombinant TNFα added to mixed cultures of wild-type and Dnmt3a^R878H HSCs) was “depletion of wild-type progeny” and the “Maintenance of Dnmt3a^R878H HSC progeny in mixed cultures” value (Dnmt3a-mutant HSCs [4]) was “preferential maintenance of Dnmt3a^R878H HSC progeny”.
